Reference: US20210206820A1 (Purdue Research Foundation, priority 2018, published 2021)
Primed or numbered codes have the meaning given here. Where no end group is shown, it is not given here. [ ]: non-standard residue; d: D form. PEG2′ = PEG2 spacer

How the values were obtained:
[1] = system: fracture callus of fractured femur; assay: Femur fracture model, microCT of the fracture callus (BV/TV, TbTh, BV, TbSp); format: in vivo, Swiss Webster mice; details: local injections
[2] = system: pre-osteoblastic cell line MC3T3-E1; assay: Alkaline phosphatase (ALP) activity of pre-osteoblastic cells after 7 days exposure; format: cell-based, mouse; details: 0.1-5 nM in culture media for 7 days, vs DMSO alone
healed fractured femur = assay: Postmortem four-point bend of the healed femur (peak/max load, stiffness, work to fracture); format: in vivo, Swiss Webster mice; details: for Bone strength (Max Load, Work to Fracture): n=5
Description: The term “Peak Load” means a postmortem 4 point bend of the healed femur. Peak load represents the maximum force the healed femur withstood before it refractured.
The targeted conjugates were synthesized using standard Fmoc solid-phase peptide synthesis, as described above. To ensure the conjugates' activity, mouse pre-osteoblast ([…]) cells were treated with the targeted and untargeted compounds for three days at concentrations from 1 pM to 100 nM. After three days of treatment, the cells were harvested, and the RNA was purified from the cells. Expression levels of ALP, RUNx2 (transcription factor for osteoblast differentiation), osterix (OSX), osteopontin (OPN), collagen 1A (Col-1A), OPG, RANKL, sclerostin gene (SOST), and OC were quantified via quantitative reverse transcription polymerase chain reaction (RT-qPCR). Once the biological activity of the conjugates was confirmed, they were tested in vivo in a fracture model. Aseptic surgical techniques were used to place a 23-gage needle as in intramedullary nail in the femur of anesthetized, 12-week-old Swiss Webster mice for internal fixation before fracture. Femur fractures were induced using a drop weight fracture device from RISystem. The mice received buprenorphine for three days post fracture. […] Fracture healing was assessed using microCT (Scanco Medical Ag). Morphometric parameters were quantified in the 100 widest slices of the fracture callus. Trabecular thickness (TbTh), trabecular spacing (TbSp), total volume (TV), and volume of calcified callus (BV) were calculated. Fractured femurs were tested for strength in a four-point bend to failure using an Electro Force TestBench (TA Instruments). Lower supports were 10 mm apart on the anterior face of the femur in contact with the proximal and distal diaphysis. Upper supports were 4 mm apart and spanned the entire fracture callus on the diaphysis. Force was applied from the posterior face of the femur with a displacement rate of 0.3 mm/sec. Peak load, yield load, stiffness, displacement post yield, work to fracture, and deformation data were generated. Statistical analysis was performed using a two-way analysis of variance (ANOVA) and a Tukey post-hoc analysis with significance reported at the 95% confidence level. All animal experiments were performed in accordance with protocols approved by Purdue University's Institutional Animal Care and Use Committee (IACUC).
Referring to FIGS. 26a, 26b, and 26c, in vivo fracture healing efficacy of VIP_mp4_(D)E10 conjugate on Swiss Webster fracture-bearing mice (n=5) after 3 weeks was reflected as BV/TV, Max Load, and Work to Fracture respectively. […]

[3] = system: fracture callus of fractured femur; assay: Femur fracture model, microCT of the fracture callus (BV/TV, TbTh, BV, TbSp); format: in vivo, Swiss Webster mice
From the text: All in vivo data included herein are from swiss Webster mice. All mice received an osteotomy on their right femur and received subcutaneous drug administration daily for either 2, 3 or 4 weeks, as indicated, for each compound. 1× concentration represents 1 nmol/day, 10× represents 10 nmol/day, 100× represents 100 nmol/day most studies have an n of 5.
The term “BV/TV” means the bone volume divided by total volume of the 100 thickest micro CT slices of the fracture callus.
The term “TbTh” means the trabecular thickness of the 100 thickest micro CT slices of the fracture callus.
The term “[…]” means the overall bone volume of the 100 thickest micro CT slices of the fracture callus.
The term “TbSp” means the spacing between the trabecula in the 100 thickest micro CT slices of the fracture callus.
The targeted conjugates were synthesized using standard Fmoc solid-phase peptide synthesis, as described above. To ensure the conjugates' activity, mouse pre-osteoblast ([…]) cells were treated with the targeted and untargeted compounds for three days at concentrations from 1 pM to 100 nM. After three days of treatment, the cells were harvested, and the RNA was purified from the cells. Expression levels of ALP, RUNx2 (transcription factor for osteoblast differentiation), osterix (OSX), osteopontin (OPN), collagen 1A (Col-1A), OPG, RANKL, sclerostin gene (SOST), and OC were quantified via quantitative reverse transcription polymerase chain reaction (RT-qPCR). Once the biological activity of the conjugates was confirmed, they were tested in vivo in a fracture model. Aseptic surgical techniques were used to place a 23-gage needle as in intramedullary nail in the femur of anesthetized, 12-week-old Swiss Webster mice for internal fixation before fracture. Femur fractures were induced using a drop weight fracture device from RISystem. The mice received buprenorphine for three days post fracture. The mice were dosed subcutaneously each day for three weeks or 17 days. Fracture healing was assessed using microCT (Scanco Medical Ag). Morphometric parameters were quantified in the 100 widest slices of the fracture callus. Trabecular thickness (TbTh), trabecular spacing (TbSp), total volume (TV), and volume of calcified callus (BV) were calculated. Fractured femurs were tested for strength in a four-point bend to failure using an Electro Force TestBench (TA Instruments). Lower supports were 10 mm apart on the anterior face of the femur in contact with the proximal and distal diaphysis. Upper supports were 4 mm apart and spanned the entire fracture callus on the diaphysis. Force was applied from the posterior face of the femur with a displacement rate of 0.3 mm/sec. Peak load, yield load, stiffness, displacement post yield, work to fracture, and deformation data were generated. Statistical analysis was performed using a two-way analysis of variance (ANOVA) and a Tukey post-hoc analysis with significance reported at the 95% confidence level. All animal experiments were performed in accordance with protocols approved by Purdue University's Institutional Animal Care and Use Committee (IACUC).

VPAC-1 = target: T1, VPAC-1 (Homo sapiens, UniProt P32241); details: VIP compared with PACAP; cited from earlier work
T1 sequence (P32241 31-457): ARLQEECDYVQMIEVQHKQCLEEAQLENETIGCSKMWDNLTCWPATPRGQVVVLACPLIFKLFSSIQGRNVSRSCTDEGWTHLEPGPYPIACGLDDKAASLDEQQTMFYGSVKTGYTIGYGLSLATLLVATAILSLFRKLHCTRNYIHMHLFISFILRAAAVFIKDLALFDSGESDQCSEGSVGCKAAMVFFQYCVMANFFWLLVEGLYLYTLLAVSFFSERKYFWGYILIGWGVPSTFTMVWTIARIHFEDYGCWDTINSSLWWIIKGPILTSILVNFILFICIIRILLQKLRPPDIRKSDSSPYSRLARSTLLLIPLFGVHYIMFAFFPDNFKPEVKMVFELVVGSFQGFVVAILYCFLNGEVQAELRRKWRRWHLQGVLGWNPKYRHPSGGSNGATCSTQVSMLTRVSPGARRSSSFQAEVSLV

VPAC-2 = target: T2, VPAC-2 (Homo sapiens, UniProt P41587); details: VIP compared with PACAP; cited from earlier work
T2 sequence (P41587 24-438): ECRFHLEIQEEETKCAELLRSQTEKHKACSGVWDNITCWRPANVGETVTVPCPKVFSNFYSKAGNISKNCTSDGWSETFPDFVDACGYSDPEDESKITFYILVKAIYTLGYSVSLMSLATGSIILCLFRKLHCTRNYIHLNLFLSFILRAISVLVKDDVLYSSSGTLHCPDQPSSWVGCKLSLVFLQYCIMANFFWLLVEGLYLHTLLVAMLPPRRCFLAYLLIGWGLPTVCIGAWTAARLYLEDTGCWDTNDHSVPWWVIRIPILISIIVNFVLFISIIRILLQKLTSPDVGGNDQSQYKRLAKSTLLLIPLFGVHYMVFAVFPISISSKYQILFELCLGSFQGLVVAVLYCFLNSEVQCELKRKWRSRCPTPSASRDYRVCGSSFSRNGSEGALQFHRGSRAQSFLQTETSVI

[4] = 2 weeks, daily sc, 1 to 100 nmol/day
[5] = 3 weeks, 0.1, 1, 10 nmol per day sc, n=5
[6] = 4 weeks, daily sc, various concentrations from 1 to 100 nmol/day

## Cc1ncc(CO)c(C)c1O [DOP, 4-deoxypyridoxine]
[1]
  Fracture healing: acceleration of fracture healing

## CC(C)Oc1ccc(-c2nc(-c3cccc4c3CC[C@@H]4NCCO)no2)cc1C#N [ozanimod, Ozanimod]
[1]
  Fracture healing: acceleration of fracture healing
[2]
  Alkaline phosphatase (ALP) activity: boost

## Amylin(1-8)-D10: amino acid 1-8 of native amylin attached to 4 peg2 spacers then ten aspartic acid (KCNTATCA[PEG2′][PEG2′][PEG2′][PEG2′]DDDDDDDDDD; not fully specified (bridges); ends and bridges not checked; UniProt P10997 34-41, looked up, fragment)
Healed fractured femur; 3 weeks, 1, 10, 100 nmol per day sc
  Bone strength (Max Load, Work to Fracture): improves bone strength
[3]; 3 weeks, 1, 10, 100 nmol per day sc, n=5
  Bone density (BV/TV) at the fracture calluses: raises bone density

## BFP-D10: bone forming peptide conjugated with 10 aspartate acids, SEQ ID NO: 1 DDDDDDDDDDGQGFSYPYKAVFSTQ (BFP D10)
Healed fractured femur; 100 nmol/day (100×), after 2 weeks
  Peak load of fractured femurs, ranking as compared to PBS: obtained the maximum peak load
[3]; [4]
  BV/TV: dose dependent manner
  TbSp: dose dependent manner

## CBM D10: collagen binding motif of osteopontin conjugated with 10 aspartate acids
[3]; 3 weeks, 0.1, 1 and 10 nmol/day
  BV/TV: dose dependent manner

## CGRP (D)E10: full natural 37 amino acid CGRP, cyclized 2-7, C-terminal 4 minipeg spacers and ten D glutamic acids
Healed fractured femur; 3 weeks, 0.1, 1, 10 nmol per day sc
  Bone strength (Max Load, Work to Fracture): raises bone strength
[3]; [5]
  Bone density (BV/TV) at the fracture calluses: raises bone density
  Bone volume (BV): stimulates more bone to be generated

## Ghrelin-D10: Ghrelin D10 with Serine (Ser)-3 replaced with diaminopropinoic acid
[3]; [6]
  BV/TV: dose dependent manner

## MGF D10: Mechano-growth factor conjugated with 10 aspartate acids, SEQ ID NO: 11 DDDDDDDDDDYQPPSTNKNTKSQRRKGSTFEEHK (Mechano-growth factor (MGF) D10, an IGF-I fragment)
[3]; [6]
  BV/TV: dose dependent manner

## OGP-D10: osteogenic growth peptide conjugated with 10 aspartate acids, SEQ ID NO: 2 DDDDDDDDDDALKRQGRTLYGFGG (OGP D10)
[3]; [4]
  BV/TV: dose dependent manner
  TbSp: dose dependent manner
  TbTh: dose dependent manner

## P4 D10: P4 (knuckle epitope fragment of hBMP-2) conjugated with 10 aspartate acids (HKIPKASSVPTELSAISTLYLDDDDDDDDDD; P4 D10-a BMP2 fragment)
[3]; 4 weeks, 1 nmol/day
  Bone volume (BV): healing was reflected
[3]; [6]
  BV/TV: dose dependent manner

## Pituitary Adenylyl Cyclase Activating Peptide [PACAP]
VPAC-1
  Affinity for VPAC-1: equal affinity
VPAC-2
  Affinity for VPAC-2: equal affinity

## Preptin-D10: Preptin conjugated with 10 aspartate acids, SEQ ID NO: 3 (HDVSTSQAVLPDDFPRYDDDDDDDDDD; Preptin D10)
[3]; 2 weeks, daily sc, 1, 10, 100 nmol/day
  Bone volume (BV): dose dependent manner
[3]; [4]
  BV/TV: dose dependent manner
  TbTh: dose dependent manner

## pBMP9 D10: 23-residue peptide from the knuckle epitope of human BMP-9 targeted with D10 (CGGKVGKACCVPTKLSPISVLYK[miniPEG][miniPEG][miniPEG][miniPEG]DDDDDDDDDD; cysteine pairing not given here)
[3]; 4 weeks, daily sc, 1, 10, 100 nmol/day
  Bone volume (BV): dose dependent manner
[3]; [6]
  BV/TV: dose dependent manner

## substance P D10: substance P with 4 mini PEG linker and conjugated with 10 aspartate acids (DDDDDDDDDDRPKPQQFFGLM; 4 mini PEG linker; substance P 4 mini PEG D10 with; (10)..(11) 4 mini PEG linker)
Healed fractured femur; 10× (10 nmol/day), 4 weeks
  Peak load the healed femur can withstand: 30-35 Newtons
[3]; [6]
  BV/TV: dose dependent manner
